Values joined by “and” are separate entries in the source; they are usually repeats but may differ in a detail not shown here. Equal values may be shown once.
Assays:
[1] = test system: pulmonary vascular resistance (PVR); conditions: single administration, historical comparison; cited from earlier work
[2] = test system: isolated Langendorff-perfused rat heart; assay: Isolated perfused heart according to Langendorff: perfusion pressure and wash-out score (C-1.2); conditions: comparative example 11 300 nmol/l, others 100 nmol/l, n=6
Description: Male Wistar rats (strain HsdCpb:WU) with a body weight of 200-250 g were anaesthetized with Narcoren® (100 mg/kg). The thorax was opened and the heart was then exposed, excised and connected to a Langendorff apparatus by placing a cannula into the aorta. The heart was perfused retrogradely at 9 ml/min at constant flow with a Krebs-Henseleit buffer solution (gassed with 95% O2 and 5% CO2, pH 7.4, 35° C.; composition in mmol/l: NaCl 118; KCl 3; NaHCO3 22; KH2PO4 1.2; MgSO4 1.2; CaCl2 1.8; Glucose 10; Na pyruvate 2). A pressure transducer registered the perfusion pressure in the perfusion system. The left ventricular pressure (LVP) was measured using a second pressure transducer connected to a water-filled balloon which was inserted into the left ventricle via the left atrium. The end diastolic pressure was initially set to 8 mm Hg by adjusting the volume of the balloon. The hearts were spontaneously beating. The signals from the pressure transducer were amplified, registered by a personal computer (Powerlab Chart software, ADInstruments).
Then the hearts were perfused for a further 120 min without the test substance (wash-out phase). The reversibility of the effect (wash-out score) was calculated as a percentage of the PP recovery after 60 min of washout related to the maximum drop of PP induced by the test compound. The wash-out score obtained in this manner was taken as a measure for the residence time of the test substance at the site of action.

[3] = test system: thromboxane analog U46619 induced PAH in minipigs; assay: PAH minipig model: comparison with and on top of standard of care (bosentan, sildenafil, riociguat); format: in vivo, Göttingen minipig
From the text: Efficacy of inhaled comparative example 11 was compared with systemically applied bosentan, sildenafil and riociguat (see FIG. 53a) in the PAH minipig model. […] Therefore inhaled application of comparative example 11 offers clear benefits as systemic effects are avoided, compared to standard of care.

[4] = Caco-2 permeability test (C-5.1); format: in vitro ADME, human; conditions: human, Caco-2 (2 μM)
Description: The in vitro permeation of a test compound across a Caco-2 cell monolayer is a well-established assay system to predict the permeability from the gastro-intestinal tract (1). The permeability of the compounds of the present invention in such Caco-2 cells was determined as described below:
Human caco-2 cells were seeded on 24-well insert plates and were allowed to grow for 14-16 days. For permeability studies, the test compounds were dissolved in DMSO and diluted to the final test concentration of 2 μM with transport buffer [Hanks' Buffered Salt Solution, Gibco/Invitrogen, further supplemented with glucose and HEPES]. For determination of the apical to basolateral permeability (PappA-B), the test compound solution was added to the apical side of the cell monolayer and transport buffer to the basolateral side of the monolayer; for determination of the basolateral to apical permeability (PappB-A), the test compound solution was added to the basolateral side of the cell monolayer and transport buffer to the apical side of the monolayer. Samples were taken from the donor compartment at the beginning of the experiment to confirm mass balance. After an incubation of 2 h at 37° C., samples were taken from both compartments. Samples were analyzed by LC-MS/MS, and the apparent permeability coefficients were calculated. Lucifer Yellow permeability was assayed for each cell monolayer to ensure cell monolayer integrity, and the permeability of Atenolol (low permeability marker) and Sulfasalazine (marker for active excretion) was determined for each batch as quality control.

[5] = Protein binding via ultrafiltration assay (comparative example 2); format: in vitro ADME
From the text: For this assay, filter membranes of 30 kDa pore size were used to separate plasma and protein free ultrafiltrate. The driving force for filtration was applied by centrifugation. Prior to protein binding studies, the adsorption (recovery) of the test compound to the ultra-filtration device and the ability of the test compound to pass the filter membrane was checked by filtration of the test compound dissolved in buffer at four concentrations. Sufficient stability of the test compound and an almost complete recovery (≥90% of the actual amount of compound used for the experiment) was a prerequisite for the use of the ultrafiltration method. The amount of organic solvent added to the plasma may not exceed 2% of the total incubation volume. Blood samples were collected in heparinized tubes either pooled (all species except human and monkey) or individually (human and monkey) and were used within 24 h for incubation experiments in blood. Plasma was prepared by centrifugation of the heparinized blood samples. Plasma was stored at −15° C. until use. Plasma stability, Compound recovery, unspecific binding to the membrane and the test device as well as partitioning between blood cells and plasma were controlled. The substance-associated radioactivity was determined by liquid scintillation counting. With this analytical method, it is not possible to distinguish between unchanged substance and radioactive metabolites. For details of the radioanalytical methods and the work up of the samples see Goeller et al. (3). A description of the ultrafiltration method in general was published by Zhang et al. In 2012 (4).

[6] = Riociguat 3 μg/kg/h systemically applied, % change per animal

Structure (SMILES) | mean change in PVR from baseline [1] [%] | wash-out score ([2]; PP recovery after 60 min of washout related to maximum drop of PP) [%] | effect on perfusion pressure (PP) [2] | BP decrease % [3, 6] | PAP decrease % [3, 6] | effects on PAP and BP ([3]; bosentan 1 mg/kg, sildenafil 300 μg/kg/h, riociguat 3 μg/kg/h systemically, comparative example 11 30 and 100 μg/kg inhaled) | efflux ratio at 2 h, 2 μM [4] | Papp A→B at 2 h, 2 μM ([4]; concentration per compound 2.0 or 2.4 μM, read-out: Papp A-B (mean +/− SD)) [×10⁻⁶ cm/s] | Papp B→A at 2 h, 2 μM ([4]; concentration per compound 2.0 or 2.4 μM, read-out: Papp B-A (mean +/− SD)) [×10⁻⁶ cm/s] | fraction unbound ([5]; Dog Beagle plasma) | fraction unbound ([5]; Human (male) plasma) | fraction unbound ([5]; Rat Wistar plasma)
CCCCC[C@H](O)CC[C@@H]1[C@H]2Cc3cccc(OCC(=O)O)c3C[C@H]2C[C@H]1O [Treprostinil] | −30 | – | – | – | – | – | – | – | – | – | – | –
COC(=O)N(C)c1c(N)nc(-c2nn(Cc3ccccc3F)c3ncccc23)nc1N [comparative example 2, Methyl-4,6-diamino-2-[1-(2-fluorobenzyl)-1H-pyrazolo[3,4-b]pyridine-3-yl]-5-pyrimi-dinyl(methyl)carbamate, reference compound] | – | 98 | pronounced reduction of perfusion pressure | −0.3% and −8.8% and −10.9% | −9.1% (2×) and −16.8% | decreases in both PAP and BP | 11 ± 3.3 | 3.5 ± 0.84 | 36.7 ± 7.5 | 0.171 | 0.0497 | 0.157
